From patent publication US20240398824A1, “Inhibition Of Rip Kinases For Treating Neurodegenerative Disorders” (The Johns Hopkins University, priority 2018, published 2024)

System: BV-2 microglia
Test: Real-time PCR of C1q, IL-6 and TNFα in AβO-activated BV-2 microglia
Format: cell-based
Design: key to mRNA levels of C1q / mRNA levels of IL-6 / mRNA levels of TNFα: relative expression normalized to GAPDH by 2^-ΔΔCt; PBS = 1
Details: for mRNA levels of IL-6 / mRNA levels of C1q / mRNA levels of TNFα: BV-2 microglia preincubated 1 h with inhibitor 1 μM, then AβO 5 μM 4 h, ±SD; for mRNA levels of IL-6: PBS = 1 ± 0.08, Abeta alone 12.53 ± 0.59; for mRNA levels of C1q: PBS = 1 ± 0.13, Abeta alone 3.7 ± 0.06; for mRNA levels of TNFα: PBS = 1 ± 0.16, Abeta alone 16.19 ± 3.21; for microglial activation / release of multiple inflammatory mediators including C1q, IL-6 and TNFα: inhibitor 1 μM pretreatment, AβO 5 μM, in words
Procedure: Synthetic Abeta1-42 oligomers were generated as previously described (PMID: 27834631). Hydroxyfluroisopropanol (HFIP)-treated synthethic Abeta1-42 peptides (rPeptide, Bogart, GA, USA) were dissolved in dimethylsulfoxide (DMSO) and further diluted in phosphate-buffered saline (PBS) to obtain a 250 μM stock solution. The stock solution was incubated at 4° C. for at least 24 hours and stored at −80° C. until use. Before use, the solution was centrifuged at 12,000 g for 10 minutes and the supernatant was used as an oligomeric Aβ.
BV-2 microglial cells were cultured in DMEM media. 10^6 of BV-2 microglia in 6 well plate were treated with 2.5 μM of Abeta for 4 hrs. Total RNA from cultured cells was extracted with a RNA isolation kit (Qiagen, Valencia, CA, USA) following manufacturer's instructions. RNA concentration was measured spectrophotometrically using a NanoDrop 2000 (Thermo scientific). Subsequently, 2 μg of total RNA was reverse transcribed to cDNA using the High-Capacity cDNA Reverse Transcription System (Life Technologies, Grand Island, NY, USA). Comparative qPCR was performed using fast SYBR Green Master Mix (Life Technologies) and steponeplus real-time pcr system (Applied Biosystems, Foster City, CA, USA). The expression levels of target genes were normalized to the expression of GAPDH and calculated based on the comparative cycle threshold Ct method^−ΔΔ(2) Ct. (n=3)
To examine the effect of RIPK2 inhibition, 10^6 of BV-2 microglia in 6 well plate were preincubated with DMSO, GSK583 (1 μM, Medchemexpress), OD361 (1 μM, Calbiochem), or Sorafenib (1 μM) for one hour. For mRNA analysis, 5 μM of AβO was treated additional for 4 hours.

| SMILES | mRNA levels of IL-6 | mRNA levels of C1q | mRNA levels of TNFα | microglial activation | release of multiple inflammatory mediators including C1q, IL-6 and TNFα |
| --- | --- | --- | --- | --- | --- |
| CNC(=O)c1cc(Oc2ccc(NC(=O)Nc3ccc(Cl)c(C(F)(F)F)c3)cc2)ccn1 [Sorafenib] | 7.13 ± 0.71 | 3.3 ± 0.09 | 9.69 ± 0.47 | blocked microglial activation | significantly reduced |
| Clc1cc2cc(c1)-c1cnn3c1NC(=NCCOCCO2)C=C3 [OD36, 6-Chloro-10,11,14,17-tetrahydro-13H-1,16-etheno-4,8-metheno-1H-pyrazolo[3,4-g][1,14,4,6]dioxadiazacyclohexadecine] | 7.64 ± 0.48 | 0.85 ± 0.12 | 5.85 ± 0.03 | blocked microglial activation | significantly reduced |
